One assay addresses T1, Protein skinhead-1 (Caenorhabditis elegans, UniProt P34707).
T1 sequence (P34707 whole entry): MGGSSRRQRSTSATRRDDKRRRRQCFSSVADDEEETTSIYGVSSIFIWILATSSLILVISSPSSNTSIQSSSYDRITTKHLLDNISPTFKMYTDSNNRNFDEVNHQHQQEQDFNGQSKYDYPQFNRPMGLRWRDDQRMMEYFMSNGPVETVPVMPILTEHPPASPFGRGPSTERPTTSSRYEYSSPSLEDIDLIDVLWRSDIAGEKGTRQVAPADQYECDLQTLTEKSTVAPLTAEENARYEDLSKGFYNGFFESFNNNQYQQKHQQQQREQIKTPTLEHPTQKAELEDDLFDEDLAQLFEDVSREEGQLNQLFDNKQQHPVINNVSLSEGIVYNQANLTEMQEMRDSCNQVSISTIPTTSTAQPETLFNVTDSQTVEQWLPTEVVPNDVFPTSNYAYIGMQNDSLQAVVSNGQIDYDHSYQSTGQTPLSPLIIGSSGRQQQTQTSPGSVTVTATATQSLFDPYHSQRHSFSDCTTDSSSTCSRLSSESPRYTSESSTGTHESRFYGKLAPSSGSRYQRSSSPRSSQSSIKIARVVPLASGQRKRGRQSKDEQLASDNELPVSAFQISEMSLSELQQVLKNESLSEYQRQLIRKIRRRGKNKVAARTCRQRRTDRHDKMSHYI
Type of assay: functional.

The target of a further assay is T2, Protein RecA (Mycobacterium tuberculosis, UniProt P9WHJ3).
T2 sequence (P9WHJ3 whole entry): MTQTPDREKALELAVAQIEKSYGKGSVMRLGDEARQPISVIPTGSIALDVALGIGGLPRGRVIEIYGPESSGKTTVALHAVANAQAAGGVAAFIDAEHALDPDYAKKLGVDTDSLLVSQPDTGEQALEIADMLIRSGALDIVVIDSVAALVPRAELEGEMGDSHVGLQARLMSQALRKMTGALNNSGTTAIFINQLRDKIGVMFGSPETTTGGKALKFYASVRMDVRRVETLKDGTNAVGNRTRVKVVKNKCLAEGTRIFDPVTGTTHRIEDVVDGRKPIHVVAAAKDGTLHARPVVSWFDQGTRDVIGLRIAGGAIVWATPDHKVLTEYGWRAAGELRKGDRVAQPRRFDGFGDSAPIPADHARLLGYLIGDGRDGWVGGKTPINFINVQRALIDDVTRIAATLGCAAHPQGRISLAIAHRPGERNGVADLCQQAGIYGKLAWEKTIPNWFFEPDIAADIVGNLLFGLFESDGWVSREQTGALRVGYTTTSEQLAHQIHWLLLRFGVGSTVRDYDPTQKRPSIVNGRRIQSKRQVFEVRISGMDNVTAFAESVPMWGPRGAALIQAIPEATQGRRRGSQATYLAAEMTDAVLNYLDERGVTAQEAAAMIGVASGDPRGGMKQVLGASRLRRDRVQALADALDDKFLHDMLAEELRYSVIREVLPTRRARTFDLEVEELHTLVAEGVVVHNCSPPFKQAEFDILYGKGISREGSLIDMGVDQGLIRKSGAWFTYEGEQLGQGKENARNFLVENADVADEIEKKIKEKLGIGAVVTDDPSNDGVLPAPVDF
Description: Fluorescence Cell-Free Homogeneous Dose Retest to Identify Inhibitors of RecA-Intein Splicing Activity. [Related pubchem assays (depositor defined):AID2097, AID2223, AID489010, AID492950]. Type of assay: functional.

Assay [1] concerns the target T3, Replicative DNA helicase DnaB (Mycobacterium tuberculosis, UniProt P9WMR3).
T3 sequence (P9WMR3 whole entry): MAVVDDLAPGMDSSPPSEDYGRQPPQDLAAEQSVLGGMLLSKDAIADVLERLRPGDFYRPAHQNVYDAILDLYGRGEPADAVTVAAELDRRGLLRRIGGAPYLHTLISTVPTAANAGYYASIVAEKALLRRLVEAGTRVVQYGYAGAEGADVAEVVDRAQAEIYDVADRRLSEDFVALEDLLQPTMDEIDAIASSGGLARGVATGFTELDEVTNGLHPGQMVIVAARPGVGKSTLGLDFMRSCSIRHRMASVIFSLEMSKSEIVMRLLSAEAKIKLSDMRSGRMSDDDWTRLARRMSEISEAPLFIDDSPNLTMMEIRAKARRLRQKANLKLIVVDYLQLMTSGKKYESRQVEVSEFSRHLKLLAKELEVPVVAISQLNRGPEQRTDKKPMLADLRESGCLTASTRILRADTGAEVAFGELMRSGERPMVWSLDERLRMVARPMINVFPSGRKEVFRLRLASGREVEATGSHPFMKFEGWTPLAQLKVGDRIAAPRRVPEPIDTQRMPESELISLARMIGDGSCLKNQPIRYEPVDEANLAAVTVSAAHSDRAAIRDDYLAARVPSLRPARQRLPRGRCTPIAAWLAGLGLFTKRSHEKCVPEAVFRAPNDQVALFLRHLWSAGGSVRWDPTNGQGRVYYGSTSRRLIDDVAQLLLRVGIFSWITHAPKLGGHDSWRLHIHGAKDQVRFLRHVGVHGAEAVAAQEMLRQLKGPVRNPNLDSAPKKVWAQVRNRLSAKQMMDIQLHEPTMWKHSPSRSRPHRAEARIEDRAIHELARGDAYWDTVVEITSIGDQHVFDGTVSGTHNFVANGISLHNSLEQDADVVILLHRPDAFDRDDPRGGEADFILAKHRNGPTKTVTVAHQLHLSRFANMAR
The experiment in a line: DnaB intein splicing inhibitors, dose response, biochemical, cell-free fluorescence (AID 449749). Type of assay: functional.

Assay [2] addresses T4, Heat shock factor protein 1 (Mus musculus, UniProt P38532).
T4 sequence (P38532 whole entry): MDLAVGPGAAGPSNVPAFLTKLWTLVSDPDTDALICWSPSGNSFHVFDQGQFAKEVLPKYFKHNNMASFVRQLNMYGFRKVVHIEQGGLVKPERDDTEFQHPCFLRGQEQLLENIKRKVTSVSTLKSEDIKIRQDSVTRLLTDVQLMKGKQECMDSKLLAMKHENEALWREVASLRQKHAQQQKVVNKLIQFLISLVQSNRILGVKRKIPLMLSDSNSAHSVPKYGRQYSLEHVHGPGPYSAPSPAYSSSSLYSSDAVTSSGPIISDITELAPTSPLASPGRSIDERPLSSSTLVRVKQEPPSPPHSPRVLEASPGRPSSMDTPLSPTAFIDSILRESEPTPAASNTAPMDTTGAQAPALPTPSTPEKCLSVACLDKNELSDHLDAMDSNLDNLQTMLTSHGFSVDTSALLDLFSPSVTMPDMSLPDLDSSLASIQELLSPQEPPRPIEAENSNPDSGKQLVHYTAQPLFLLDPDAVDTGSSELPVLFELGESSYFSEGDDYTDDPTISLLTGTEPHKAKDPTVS
Description: enhancement of HSF1-driven luciferase signal – cell-based, NIH3T3, luminescence, dose retest, confirmation (AID 435004).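 Also: stress induced by proteasome inhibitor MG132 added 30 min after compound; luciferase reporter driven by HSF1 response element in NIH3T3 cells; actives raise luminescence as potentiators of the MG132 stress response.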 Type of assay: functional.

Assay [3] has as its target T5, Rac GTPase-activating protein 1 (Homo sapiens, UniProt Q9H0H5).
T5 sequence (Q9H0H5 whole entry): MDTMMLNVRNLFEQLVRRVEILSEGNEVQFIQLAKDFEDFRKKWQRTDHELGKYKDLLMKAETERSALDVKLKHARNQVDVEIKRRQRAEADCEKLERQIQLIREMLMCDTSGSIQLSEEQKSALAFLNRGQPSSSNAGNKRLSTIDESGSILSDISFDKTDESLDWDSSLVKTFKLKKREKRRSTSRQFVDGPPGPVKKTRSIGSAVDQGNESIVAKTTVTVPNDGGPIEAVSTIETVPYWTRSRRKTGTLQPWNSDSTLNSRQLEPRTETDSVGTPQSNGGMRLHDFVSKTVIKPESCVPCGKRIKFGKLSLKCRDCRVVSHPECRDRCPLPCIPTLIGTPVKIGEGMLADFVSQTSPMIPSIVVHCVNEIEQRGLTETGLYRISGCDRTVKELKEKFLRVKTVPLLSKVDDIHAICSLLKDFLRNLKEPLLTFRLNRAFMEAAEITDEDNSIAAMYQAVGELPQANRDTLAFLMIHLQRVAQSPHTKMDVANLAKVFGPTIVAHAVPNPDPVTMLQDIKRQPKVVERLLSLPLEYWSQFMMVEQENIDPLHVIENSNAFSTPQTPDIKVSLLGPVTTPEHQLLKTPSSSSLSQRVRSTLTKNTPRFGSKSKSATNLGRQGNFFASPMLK
Description: blockers of MgcRacGAP-driven Rac1 GTP hydrolysis – biochemical, ADP Hunter fluorescence, primary and confirmatory, confirmation (AID 624330). Type of assay: functional.

The target of the next assay is Large T antigen (Simian virus 40, UniProt P03070). Type of assay: functional, Betapolyomavirus macacae.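 Also: Confirmatory-stage PubChem screen for compounds that inhibit SV40 T antigen.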
Chain of Large T antigen (P03070 whole entry): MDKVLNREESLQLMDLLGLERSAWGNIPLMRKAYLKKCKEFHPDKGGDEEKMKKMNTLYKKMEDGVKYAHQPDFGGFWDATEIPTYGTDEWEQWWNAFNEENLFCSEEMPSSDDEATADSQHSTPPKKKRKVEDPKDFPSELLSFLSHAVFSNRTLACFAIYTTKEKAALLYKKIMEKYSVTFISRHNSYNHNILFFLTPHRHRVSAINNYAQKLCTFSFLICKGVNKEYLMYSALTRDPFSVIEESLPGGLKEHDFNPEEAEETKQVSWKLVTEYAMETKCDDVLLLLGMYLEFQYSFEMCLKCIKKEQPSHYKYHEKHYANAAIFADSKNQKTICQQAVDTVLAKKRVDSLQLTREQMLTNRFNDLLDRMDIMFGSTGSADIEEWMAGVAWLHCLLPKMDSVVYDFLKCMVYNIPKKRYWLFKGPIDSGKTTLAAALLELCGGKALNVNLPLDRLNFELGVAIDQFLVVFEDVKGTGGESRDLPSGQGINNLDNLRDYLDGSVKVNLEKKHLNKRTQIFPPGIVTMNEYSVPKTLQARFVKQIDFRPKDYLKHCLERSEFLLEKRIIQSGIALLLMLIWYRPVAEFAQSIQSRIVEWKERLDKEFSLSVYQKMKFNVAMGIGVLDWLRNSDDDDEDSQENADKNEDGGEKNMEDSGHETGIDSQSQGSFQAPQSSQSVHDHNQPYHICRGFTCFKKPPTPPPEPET
Assay [4] deals with FAD-linked sulfhydryl oxidase ALR (Homo sapiens, UniProt P55789). Description: ALR-catalysed DTT oxidation blockers – biochemical, H2O2 detection, luminescence, cherry-pick, dose response (AID 493248).
Chain of FAD-linked sulfhydryl oxidase ALR (P55789 whole entry): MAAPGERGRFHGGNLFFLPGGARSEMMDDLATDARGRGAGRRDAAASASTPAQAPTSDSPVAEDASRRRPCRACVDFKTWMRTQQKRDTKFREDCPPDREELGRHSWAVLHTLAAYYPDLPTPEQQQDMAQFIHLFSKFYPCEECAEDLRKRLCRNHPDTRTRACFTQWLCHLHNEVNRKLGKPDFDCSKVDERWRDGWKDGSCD
For assay [5], the target named is T6, Corticotropin-releasing factor receptor 2/Corticotropin-releasing factor-binding protein (Homo sapiens, UniProt P24387+Q13324).
T6 sequence (Q13324 whole entry): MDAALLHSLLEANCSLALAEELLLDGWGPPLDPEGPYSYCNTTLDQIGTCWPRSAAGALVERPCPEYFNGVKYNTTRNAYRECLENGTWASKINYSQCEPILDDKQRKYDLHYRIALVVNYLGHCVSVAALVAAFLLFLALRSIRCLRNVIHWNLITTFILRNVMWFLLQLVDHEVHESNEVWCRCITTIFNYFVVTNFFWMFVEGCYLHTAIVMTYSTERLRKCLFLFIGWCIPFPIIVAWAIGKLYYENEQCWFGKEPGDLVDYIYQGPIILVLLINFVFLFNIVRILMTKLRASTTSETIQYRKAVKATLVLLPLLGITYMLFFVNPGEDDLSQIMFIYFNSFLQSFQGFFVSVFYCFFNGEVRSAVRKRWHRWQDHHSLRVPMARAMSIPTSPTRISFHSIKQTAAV
T6 sequence (P24387 whole entry): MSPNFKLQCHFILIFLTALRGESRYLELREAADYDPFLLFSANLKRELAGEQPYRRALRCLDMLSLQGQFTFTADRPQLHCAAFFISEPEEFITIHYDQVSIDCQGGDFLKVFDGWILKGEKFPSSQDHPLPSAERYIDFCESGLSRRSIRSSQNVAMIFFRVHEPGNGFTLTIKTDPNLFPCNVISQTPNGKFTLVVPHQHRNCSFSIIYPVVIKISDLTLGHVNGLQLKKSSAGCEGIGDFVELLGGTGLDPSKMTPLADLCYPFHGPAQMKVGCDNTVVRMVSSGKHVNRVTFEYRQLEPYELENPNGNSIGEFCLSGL
The experiment in a line: activators of CRF receptor 2 with binding protein – uHTS hits, confirmation (AID 602473). Particulars: read-out: EC50_Mean. Type of assay: functional.

Active and inactive are the calls of the source. Bounds are passed on as bounds.

For `Cc1c(-c2csc(N)n2)c2ccccc2n1C`, at Protein skinhead-1, the IC50 is > 100 µM (inactive). For `Cc1ccc(C/N=C/c2[nH]c3ccc(Br)c(Cl)c3c2O)cc1`, on Protein RecA, the EC50 was 1.43 µM (active). Moreover, the AC50 in assay [1] was > 380 µM (inactive). Taken in the same sequence, the figures for `O=C(c1c[nH]c(C(=O)C(Cl)(Cl)Cl)c1)c1ccccc1F` were 7.39 µM (active) and 12.6 µM (active).

`Cc1nn(-c2cccc(Cl)c2)c2c1C(c1ccncc1)C(C#N)=C(N)O2` (centres undefined): the EC50 in assay [2] was > 260 µM (inactive); on Protein RecA it was 7.71 µM (active). The AC50 in assay [1] was 9.1 µM (active). For `NSc1nc(N)c2nc(-c3ccccc3)c(-c3ccccc3)nc2n1`, in assay [3], the IC50 was 99.2 µM (active). The same measure, in the same setting: to `O=C(N/N=C/c1ccc(N2CCOCC2)s1)c1ccc(O)cc1` belongs 23.5 µM (active). For `COc1cc(/C=N/NC(=O)CCn2nnc3ccccc32)ccc1O`, the IC50 on Large T antigen was 8.58 µM (active); in assay [3] it was 58.7 µM (active). Besides, the AC50 in assay [4] was 236 nM (active). Regarding `Cc1ccc2sc(NC(=O)c3cccc(N4C(=O)CCC4=O)c3)nc2c1C`, the IC50 at Protein skinhead-1 was > 100 µM (inactive). `COc1ccc(NC2CCCN(C(=O)c3ccc(C)c(N4CCNC4=O)c3)C2)cc1` (centres undefined): in assay [3], the IC50 was 129 µM (active). In the case of `CC(C)(C)NC(=O)C(c1cccs1)N(CC1CCCO1)C(=O)c1ccc(-c2ccccc2)[nH]1` (centres undefined), the EC50 on Protein RecA is 169 µM (active). The AC50 in assay [1] is 37.9 µM (active). Take `COc1cc(/C=N/NC(=O)c2nc(C)cc(C)n2)ccc1O`: the IC50 at Large T antigen is 39.5 µM (active); in assay [3], 35.3 µM (active). The EC50 in assay [5] is > 53 µM (inactive).

Consider `COC(=O)CCSc1cc(NCCOC(C)=O)c([N+](=O)[O-])c2nonc12`, for which the EC50 at Protein RecA was 4.63 µM (active). For the same molecule, in assay [1], the AC50 is 37.5 µM (active). Taken in the same sequence, the figures for `COc1ccc(CN2C(=O)NC(=O)/C(=C\NNC(=O)c3ccccc3O)C2=O)cc1` were 32.2 µM (active) and 2.69 µM (active). Regarding `NC(CSS(=O)(=O)O)=NCCC12CC3CC(CC(O)(C3)C1)C2`, the IC50 in assay [3] was 142 µM (active). For `O=C(NC1C(=O)NNC1c1ccccc1)c1ccccc1` (centres undefined), the EC50 in assay [2] was 246 µM (active); at Protein RecA, 4.83 µM (active). In addition, the AC50 in assay [1] is 8.8 µM (active).

As for `CC(NS(=O)(=O)c1ccc(Cl)cc1)C(=O)OCC(=O)Nc1ccc(N(C)C)cc1` (centres undefined), the IC50 in assay [3] was 65.1 µM (active). `COc1ccc(CN2CCN(C(=O)CC(C)C)CC2)cc1OC`: the IC50 in assay [3] was 161 µM (active).

With `CN(C)c1ccc(NC(=O)c2ccncc2)c2ccccc12`, the EC50 on Protein RecA was 45.4 µM (active). For the same molecule, the AC50 in assay [1] is 66.5 µM (active). Taken in the same sequence, the figures for `COc1ccc(OC)c(C(c2c(C)n[nH]c2O)c2c(C)n[nH]c2O)c1` were 0.211 µM (active) and 0.296 µM (active).

A word on the IC50: it is the concentration needed to halve the response being measured. Usually AC50 stands for the concentration giving half of the maximal activity seen.

The values are drawn from ChEMBL document CHEMBL1201862, “PubChem BioAssay data set” (2004).
